From PMC12591484 (PLOS One, 2025)

Tests used:
[1] = target: T1, α1β3L231Cγ2L GABAA receptors (Homo sapiens, UniProt P14867+P18507+P28472, L256C); assay: Drug protection from pCMBS modification (SCAMP); format: cell-based; conditions: β3L231C (β–); pCMBS 100 µM x 30 s; […] etomidate, 8 µM R-mTFD-MPAB or 10 µM pTFD-di-iPr-BnOH; n = 5
T1 construct: expressed in transfected cells; host or cells: Xenopus oocytes injected with capped mRNA, 1α:1β:5γ
Experimental: (§1) Experiments were performed in ND-96 buffer at room temperature (20–22°C). Oocytes were placed in a low-volume (30µl) flow chamber and impaled with borosilicate microelectrodes filled with 3M KCl (resistance 0.5–3 MΩ) and voltage-clamped at −50 mV (model OC-725C; Warner Instruments, Hamden, CT, USA). Superfusate solutions in ND-96 were delivered at 2 ml/min from glass syringe reservoirs via computer-controlled valves (VC-8; Warner Instruments), a micro-manifold (ALA-VM8; ALA Scientific Instruments, Farmingdale, NY, USA), and PTFE tubing. Currents were digitized at 200 Hz on a computer running ClampEx v8.0 software (Molecular Devices, San Jose, CA, USA). Digitized traces were filtered with a 10-Hz low-pass Bessel function, leak corrected and analyzed for peak amplitude off-line using Clampfit v8 software (Molecular Devices).
(§2) Drug protection from pCMBS modification was assessed under pCMBS exposure conditions that produced approximately half of the maximal modification ratio for each mutant receptor, and a least a value of 3. This approach balanced the magnitude of functional modification signals (smaller with less pCMBS exposure) against the challenge of using a reversibly bound ligand to competitively block an irreversible covalent cysteine-modifying reaction. […] Each oocyte was used in a single SCAMP experiment. […] Etomidate was used as a positive control for anesthetic protection in α1M236C and β3M286C mutants and as a negative control in α1S270C, α1A291C, β3L231C, γ2S301C, γ2I242C, and γ2L246C mutants. R-mTFD-MPAB was used as a positive control in α1S270C, α1A291C, β3L231C, and γ2LS301C mutants and as a negative control in α1M236C and β3M286C mutants. For each cysteine mutant and protective drug combination, five oocytes were studied.
(§3) Non-linear least squares fits and statistical analyses were performed in Prism 10.4.0. (GraphPad Software, San Diego, CA, USA). […] Protection (steric inhibition of pCMBS modification) was inferred when anesthetics produced significant reductions in modification ratios relative to control (no anesthetic) values. The statistical significance threshold was p < 0.05.

[2] = target: T2, α1β3γ2S301C GABAA receptors (Homo sapiens, UniProt P14867+P18507+P28472, S340C); assay: Drug protection from pCMBS modification (SCAMP); format: cell-based; conditions: γ2S301C (γ+); pCMBS 100 µM x 90 s; […] etomidate, 8 µM R-mTFD-MPAB or 10 µM pTFD-di-iPr-BnOH; n = 5
T2 construct: expressed in transfected cells; host or cells: Xenopus oocytes injected with capped mRNAs mixed 1α:1β:5γ
T2 sequence (P14867 28-456): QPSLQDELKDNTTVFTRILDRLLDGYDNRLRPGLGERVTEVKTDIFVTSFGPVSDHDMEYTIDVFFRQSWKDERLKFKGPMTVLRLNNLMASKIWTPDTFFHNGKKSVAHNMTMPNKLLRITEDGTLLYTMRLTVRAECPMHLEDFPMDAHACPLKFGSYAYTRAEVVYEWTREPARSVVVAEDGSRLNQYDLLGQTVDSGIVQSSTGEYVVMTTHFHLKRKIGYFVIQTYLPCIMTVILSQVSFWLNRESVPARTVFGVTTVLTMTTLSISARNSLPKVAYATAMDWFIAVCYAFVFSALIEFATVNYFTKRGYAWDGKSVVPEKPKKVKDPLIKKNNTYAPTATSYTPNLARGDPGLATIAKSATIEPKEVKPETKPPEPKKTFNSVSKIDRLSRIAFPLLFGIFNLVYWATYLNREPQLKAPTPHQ
T2 sequence (P28472 26-473): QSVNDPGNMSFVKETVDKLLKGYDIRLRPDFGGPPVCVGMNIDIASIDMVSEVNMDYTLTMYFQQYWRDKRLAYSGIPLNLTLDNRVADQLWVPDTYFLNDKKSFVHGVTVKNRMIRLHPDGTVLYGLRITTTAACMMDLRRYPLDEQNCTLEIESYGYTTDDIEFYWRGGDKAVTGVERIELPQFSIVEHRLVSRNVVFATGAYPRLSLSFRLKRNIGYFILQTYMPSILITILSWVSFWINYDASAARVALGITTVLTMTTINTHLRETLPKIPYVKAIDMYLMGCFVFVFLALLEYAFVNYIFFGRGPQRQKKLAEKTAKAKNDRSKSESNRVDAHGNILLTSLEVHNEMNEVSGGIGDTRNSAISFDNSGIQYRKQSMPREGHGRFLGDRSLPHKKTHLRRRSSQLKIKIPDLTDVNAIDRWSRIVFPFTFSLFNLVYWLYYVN
T2 sequence (P18507 40-475 S340C): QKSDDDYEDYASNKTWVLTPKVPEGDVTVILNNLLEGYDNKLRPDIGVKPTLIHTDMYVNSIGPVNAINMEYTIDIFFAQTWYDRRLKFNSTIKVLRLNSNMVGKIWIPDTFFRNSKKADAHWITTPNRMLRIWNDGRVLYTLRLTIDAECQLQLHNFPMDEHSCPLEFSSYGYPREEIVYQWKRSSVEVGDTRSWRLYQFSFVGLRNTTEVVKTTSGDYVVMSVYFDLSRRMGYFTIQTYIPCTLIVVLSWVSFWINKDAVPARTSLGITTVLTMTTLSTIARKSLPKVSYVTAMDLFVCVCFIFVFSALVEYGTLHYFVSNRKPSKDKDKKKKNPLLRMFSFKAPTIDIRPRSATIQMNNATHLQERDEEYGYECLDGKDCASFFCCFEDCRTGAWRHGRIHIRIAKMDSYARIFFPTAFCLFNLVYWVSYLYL
Experimental: as §1, §2, §3

[3] = tested on: α1β3γ2L GABAA receptors, substituted cysteine at β3M227 (β3– M1); design: key: +: SCAMP is Substituted Cysteine Modification and Protection and is positive when adding anesthetic to cysteine modifier significantly reduces persistent post-exposure effects due to covalent modification; -: Negative results are indicated by “–“ symbols; conditions: previously reported; cited from earlier work
[4] = target: T3, α1M236Cβ3γ2L GABAA receptors (Homo sapiens, UniProt P14867+P18507+P28472, M263C); assay: Drug protection from pCMBS modification (SCAMP); format: cell-based; conditions: α1M236C (α–); pCMBS 10 µM x 30 s; […] etomidate, 8 µM R-mTFD-MPAB or 10 µM pTFD-di-iPr-BnOH; n = 5
T3 construct: expressed in transfected cells; host or cells: Xenopus oocytes injected with capped mRNA, 1α:1β:5γ
Experimental: as §1, §2, §3

[5] = tested on: α1β2N265Cγ2L receptors; conditions: at the tested concentration; etomidate binds extremely weakly; cited from earlier work

T1 sequence (P28472 26-473 L256C, one chain of several): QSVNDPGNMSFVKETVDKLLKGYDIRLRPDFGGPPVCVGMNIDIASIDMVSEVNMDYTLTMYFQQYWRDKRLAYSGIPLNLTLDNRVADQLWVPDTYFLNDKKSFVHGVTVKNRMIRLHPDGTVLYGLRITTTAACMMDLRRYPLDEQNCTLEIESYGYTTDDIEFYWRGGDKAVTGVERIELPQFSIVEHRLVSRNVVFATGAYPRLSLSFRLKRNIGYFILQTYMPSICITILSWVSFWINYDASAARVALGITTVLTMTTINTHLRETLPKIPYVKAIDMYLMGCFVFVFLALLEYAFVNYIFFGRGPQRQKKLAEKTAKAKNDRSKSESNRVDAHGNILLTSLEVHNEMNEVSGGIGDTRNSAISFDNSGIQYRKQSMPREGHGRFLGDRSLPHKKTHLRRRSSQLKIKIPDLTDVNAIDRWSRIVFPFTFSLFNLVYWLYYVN
T1 sequence (P18507 40-475, one chain of several): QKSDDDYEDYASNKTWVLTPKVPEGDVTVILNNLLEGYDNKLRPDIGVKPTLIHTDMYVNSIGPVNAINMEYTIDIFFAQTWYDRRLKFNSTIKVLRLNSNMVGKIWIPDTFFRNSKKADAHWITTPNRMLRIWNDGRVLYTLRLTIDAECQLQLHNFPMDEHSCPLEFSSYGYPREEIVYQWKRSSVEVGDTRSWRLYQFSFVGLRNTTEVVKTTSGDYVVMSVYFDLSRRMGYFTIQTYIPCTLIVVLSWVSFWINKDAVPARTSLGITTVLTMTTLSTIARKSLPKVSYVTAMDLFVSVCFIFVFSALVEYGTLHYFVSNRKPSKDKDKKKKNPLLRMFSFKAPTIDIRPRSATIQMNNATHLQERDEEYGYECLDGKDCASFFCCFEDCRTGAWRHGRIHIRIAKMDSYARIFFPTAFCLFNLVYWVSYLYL
T3 sequence (P14867 28-456 M263C, one chain of several): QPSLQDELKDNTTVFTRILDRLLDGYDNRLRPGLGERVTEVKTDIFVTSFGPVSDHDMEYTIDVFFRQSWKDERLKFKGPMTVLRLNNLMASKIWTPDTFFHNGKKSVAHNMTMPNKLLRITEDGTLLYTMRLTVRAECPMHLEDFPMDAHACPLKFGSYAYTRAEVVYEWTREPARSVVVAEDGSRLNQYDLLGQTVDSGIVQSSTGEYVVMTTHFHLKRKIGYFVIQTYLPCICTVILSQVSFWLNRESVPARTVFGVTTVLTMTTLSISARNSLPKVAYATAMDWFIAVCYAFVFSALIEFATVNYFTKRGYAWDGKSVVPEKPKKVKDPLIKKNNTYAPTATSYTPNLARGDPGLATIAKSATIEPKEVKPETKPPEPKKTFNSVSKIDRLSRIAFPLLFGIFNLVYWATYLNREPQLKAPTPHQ
T3 sequence (P18507 40-475, one chain of several): as the sequence (P18507 40-475, one chain of several) above

C=CCC1(c2cccc(C3(C(F)(F)F)N=N3)c2)C(=O)NC(=O)N(C)C1=O (centres unmarked) [R-mTFD-MPAB, R-5-allyl-1-methyl-5-(m-trifluoromethyl-diazirynylphenyl) barbituric acid]
protection from pCMBS modification (significant reduction of modification ratio vs control, p < 0.05) [1]: protection was also inferred
protection from pCMBS modification (significant reduction of modification ratio vs control, p < 0.05) [2]: protection was inferred
SCAMP result, β3– (M1) M227 [3]: +^[9]

CCOC(=O)c1cncn1[C@H](C)c1ccccc1 [etomidate, R-etomidate]
protection from pCMBS modification (significant reduction of modification ratio vs control, p < 0.05) [4]: protection was inferred
SCAMP protection at β N265C [5]: fails to protect
